Experimental data reported in PubChem BioAssay AID1919005 (Molecular Pharmacology Branch, DTP, NCI, 2023).
“And” between values parts separate entries of the source, which are not always exact repeats. Identical values can stand only once.

System: 855422-203-R-J1-PDC complex spheroid growth
Test: Anticancer human tumor 855422-203-R-J1-PDC patient-derived bladder carcinoma cell line growth inhibition [AhR]
Settings: for viability, T/C: stronger effect = lower value
From the text: Multicellular complex tumor spheroid response to aryl hydrocarbon receptor antagonists in combination with a variety of drugs and investigational agents in selected tumor cell lines
The current study was undertaken to assess response to aryl hydrocarbon receptor antagonists in combination with standard-of-care drugs and investigational agents in solid tumor complex spheroid models. Complex spheroids include a stromal component modeled by human endothelial cells (HUVEC) and fibroblasts modeled by human mesenchymal stem cells (MSCs). The concentration ranges selected for each drug and investigational agent were based upon clinically achievable concentrations if the clinical Cmax of the agent was known.
Compounds. The drugs and investigational agents: BAY 2416964 (NSC825713), GNF351 (NSC835774), CH-223191 (NSC835775), CPI-455 (NSC825282), aza-TdCyd (NSC777586), decitabine (NSC127716), belinostat (NSC758774), entinostat (NSC756642), pevonedistat (NSC761192), tazemetostat (NSC777109), talazoparib (NSC765396), olaparib (NSC753686), selinexor (NSC780203), nedisertib (M3814, NSC802822), bortezomib (NSC756655), venetoclax (NSC766270), doxorubicin (NSC123127), elimusertib (BAY189344, NSC800525), ceralasertib (AZD6738, NSC777638), TAK-243 (NSC785004), alisertib (NSC759677), etoposide (NSC141540), topotecan (NSC609699), eribulin (NSC707389), gemcitabine (NSC613327), carboplatin (NSC241240), cisplatin (NSC119875), and SN-38 (NSC673596) were obtained from the National Cancer Institute (NCI) Developmental Therapeutics Program Chemical Repository (32). The FDA-approved anticancer drug set is available from the Developmental Therapeutics Program at https://dtp.cancer.gov/organization/dscb/obtaining/available plates.htm. […] The stock solutions were prepared in dimethyl sulfoxide (DMSO, Sigma-Aldrich, St. Louis, MO, cat. D2650), except for the platinum compounds which were prepared in saline (Quality Biological, Gaithersburg, MD, cat. 114-055-101), at 800-fold the tested concentration and stored at -70 degrees C prior to their use. All drugs and investigational agents were tested over a range starting from a high concentration at or near the clinical Cmax and decreasing in half-log increments. If the clinical Cmax for an agent had not been determined, the highest concentration tested was 10 microM (Table 1).
Cell Culture. All cells were maintained in an incubator at 37 degrees C and 5% CO2 with 95% humidity. The PDC lines were cultured according to standard operating procedures established by the NCI PDMR (https://pdmr.cancer.gov). Briefly, all PDCs were thawed and cultured in Matrigel-coated flasks prepared with a working solution of 1X Ham's F-12 nutrient mix, without supplementation (Invitrogen, Waltham, MA, cat. 11765054), 100 U/mL penicillin-streptomycin (Invitrogen, cat. 15140122), and 2.5% Matrigel (Corning Inc., Corning, NY, cat. 354248) for the first three passages. All PDCs were cultured in complete DMEM/F-12 media containing advanced DMEM/F-12 (Invitrogen, cat. 12634028), 4.9% defined fetal bovine serum, heat inactivated (HyClone Laboratories Inc., Logan, UT, cat. SH30070.03HI), 389 ng/mL hydrocortisone (Sigma-Aldrich, cat. H4001), 9.7 ng/mL human EGF recombinant protein (Invitrogen, cat. PHG0313), 23.4 microg/mL adenine (Sigma-Aldrich, cat. A2786), 97.3 U/mL penicillin-streptomycin (Invitrogen, cat. 15140122), 1.9 mM L-glutamine (Invitrogen, cat. 25030081), and 9.7 microM Y-27632 dihydrochloride (Tocris Bioscience, Bristol, United Kingdom, cat. 1254). The PDCs were cultured in complete DMEM/F12 media without 10 microM Y-27632 dihydrochloride for at least two passages prior to the screen. The established cell lines NCI-H1341 and […] were cultured in DMEM/F-12, HEPES (Invitrogen, cat. 11330032), 5% defined fetal bovine serum (HyClone Laboratories Inc., cat. SH30070.03), ITS premix universal culture supplement [insulin (5 microg/mL), transferrin (5 microg/mL), and selenious acid (5 ng/mL)] […]

[1] = curve of first compound, second compound 0.1 µM
[2] = curve of first compound, second compound 0.316 µM
[3] = curve of first compound, second compound 1 µM
[4] = curve of first compound, second compound 3.16 µM
[5] = curve of first compound, second compound 10 µM
[6] = second compound 0.1 µM, first compound 0.0316 µM
[7] = second compound 0.1 µM, first compound 0.1 µM
[8] = second compound 0.1 µM, first compound 0.316 µM
[9] = second compound 0.1 µM, first compound 1 µM
[10] = second compound 0.1 µM, first compound 3.16 µM
[11] = second compound 0.1 µM, first compound 10 µM
[12] = second compound 0.316 µM, first compound 0.0316 µM
[13] = second compound 0.316 µM, first compound 0.1 µM
[14] = second compound 0.316 µM, first compound 0.316 µM
[15] = second compound 0.316 µM, first compound 1 µM
[16] = second compound 0.316 µM, first compound 3.16 µM
[17] = second compound 0.316 µM, first compound 10 µM
[18] = second compound 1 µM, first compound 0.0316 µM
[19] = second compound 1 µM, first compound 0.1 µM
[20] = second compound 1 µM, first compound 0.316 µM
[21] = second compound 1 µM, first compound 1 µM
[22] = second compound 1 µM, first compound 3.16 µM
[23] = second compound 1 µM, first compound 10 µM
[24] = second compound 3.16 µM, first compound 0.0316 µM
[25] = second compound 3.16 µM, first compound 0.1 µM
[26] = second compound 3.16 µM, first compound 0.316 µM
[27] = second compound 3.16 µM, first compound 1 µM
[28] = second compound 3.16 µM, first compound 3.16 µM
[29] = second compound 3.16 µM, first compound 10 µM
[30] = second compound 10 µM, first compound 0.0316 µM
[31] = second compound 10 µM, first compound 0.1 µM
[32] = second compound 10 µM, first compound 0.316 µM
[33] = second compound 10 µM, first compound 1 µM
[34] = second compound 10 µM, first compound 3.16 µM
[35] = second compound 10 µM, first compound 10 µM
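Note: spheroids exposed to agents for seven days before readout.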
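Throughout, for viability, T/C: percent of DMSO vehicle control luminescence viability.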

SMILES	IC50 [1]	IC50 [2]	IC50 [3]	IC50 [4]	IC50 [5]	viability, T/C [6]	viability, T/C [7]	viability, T/C [8]	viability, T/C [9]	viability, T/C [10]	viability, T/C [11]	viability, T/C [12]	viability, T/C [13]	viability, T/C [14]	viability, T/C [15]	viability, T/C [16]	viability, T/C [17]	viability, T/C [18]	viability, T/C [19]	viability, T/C [20]	further results
CC(CO)NC(=O)c1cc(-c2ccc(Cl)cc2)nn(-c2cnn(C)c2)c1=O (stereo unspecified)																					viability, T/C (compound 0.1 µM): 92.2% [middle of 20 runs]; viability, T/C (compound 1 µM): 94.9% [middle of 21 runs]; viability, T/C (compound 3.16 µM): 96.8% [middle of 19 runs]; viability, T/C (compound 10 µM): 91.4% [middle of 19 runs]; IC50 (compound alone, run of 05/31/2022): > 10 µM
COc1cc(Nc2ncc3c(n2)-c2ccc(Cl)cc2C(c2c(F)cccc2OC)=NC3)ccc1C(=O)O																					viability, T/C (compound 0.0316 µM): 102% and 109% and 95.2%; viability, T/C (compound 0.1 µM): 105% and 114% (2×); viability, T/C (compound 0.316 µM): 60.7% and 90.8% and 66.4%; viability, T/C (compound 1 µM): 55.4% and 89% and 51.6%; viability, T/C (compound 3.16 µM): 47.3% and 82.6% and 48.8%; viability, T/C (compound 10 µM): 45.4% and 68.6% and 47%
COc1ccc([C@@H](O)c2cc(-c3ncnc4cc(N5CCOCC5)ccc34)c(F)cc2Cl)nn1 + Cc1ccccc1N=Nc1ccc(NC(=O)c2ccnn2C)c(C)c1	> 10 µM	> 10 µM	> 10 µM	> 10 µM	6.18 µM	99.2%	108%	98.3%	96.5%	87.3%	71.3%	107%	111%	99.8%	102%	90.1%	70.3%	107%	102%	106%	viability, T/C [21]: 96.9%; viability, T/C [22]: 87.8%; viability, T/C [23]: 63.1%; viability, T/C [24]: 95.9%; viability, T/C [25]: 100%; viability, T/C [26]: 95.7%; viability, T/C [27]: 98.6%; viability, T/C [28]: 77.1%; viability, T/C [29]: 54.8%; viability, T/C [30]: 87.8%; viability, T/C [31]: 91.6%; viability, T/C [32]: 86.1%; viability, T/C [33]: 86%; viability, T/C [34]: 62%; viability, T/C [35]: 41.4%
Nc1ccn(C2OC(CO)C(O)C2(F)F)c(=O)n1 (stereo unspecified) + Cc1cncc(-c2nc(NCCc3c[nH]c4ccccc34)c3ncn(C(C)C)c3n2)c1	0.0483 µM	0.0463 µM	0.0425 µM	0.0595 µM	< 0.0316 µM	65.8%	22.5%	15.1%	12.1%	10.7%	7.08%	61.6%	26.9%	12.9%	12.8%	10.2%	7.37%	59.6%	22.8%	13.5%	viability, T/C [21]: 9.62%; viability, T/C [22]: 10.7%; viability, T/C [23]: 8.49%; viability, T/C [24]: 65.2%; viability, T/C [25]: 37.5%; viability, T/C [26]: 16.2%; viability, T/C [27]: 8.68%; viability, T/C [28]: 11.6%; viability, T/C [29]: 9.18%; viability, T/C [30]: 6.33%; viability, T/C [31]: 1.93%; viability, T/C [32]: 1.21%; viability, T/C [33]: 0.96%; viability, T/C [34]: 2.26%; viability, T/C [35]: 2.09%
O=C(c1cc(Cc2n[nH]c(=O)c3ccccc23)ccc1F)N1CCN(C(=O)C2CC2)CC1 + Cc1ccccc1N=Nc1ccc(NC(=O)c2ccnn2C)c(C)c1	> 10 µM	> 10 µM	> 10 µM	> 10 µM	> 10 µM	96.5%	102%	99.3%	95.1%	90.9%	93.2%	102%	100%	97.8%	93.1%	94.2%	93.1%	97.6%	102%	103%	viability, T/C [21]: 100%; viability, T/C [22]: 101%; viability, T/C [23]: 94.6%; viability, T/C [24]: 90.2%; viability, T/C [25]: 91.7%; viability, T/C [26]: 92.2%; viability, T/C [27]: 94.3%; viability, T/C [28]: 93.3%; viability, T/C [29]: 84.2%; viability, T/C [30]: 80.9%; viability, T/C [31]: 79.3%; viability, T/C [32]: 76.9%; viability, T/C [33]: 79.7%; viability, T/C [34]: 74%; viability, T/C [35]: 63.6%
CC(C)c1c(-c2ccccc2)nc2c(C#N)c[nH]n2c1=O + Cc1cncc(-c2nc(NCCc3c[nH]c4ccccc34)c3ncn(C(C)C)c3n2)c1	> 10 µM	> 10 µM	> 10 µM	> 10 µM	< 0.0316 µM	112%	91.1%	104%	95.9%	94.2%	78.8%	90.1%	97.2%	83.8%	82.5%	75.4%	78.1%	82.7%	92.1%	90%	viability, T/C [21]: 74.3%; viability, T/C [22]: 76.4%; viability, T/C [23]: 72.1%; viability, T/C [24]: 78.6%; viability, T/C [25]: 87.2%; viability, T/C [26]: 84.1%; viability, T/C [27]: 57%; viability, T/C [28]: 68.9%; viability, T/C [29]: 63.9%; viability, T/C [30]: 5.73%; viability, T/C [31]: 5.87%; viability, T/C [32]: 2.84%; viability, T/C [33]: 1.09%; viability, T/C [34]: 3.05%; viability, T/C [35]: 4.37%
